Experiment: Human HepG2 cell viability assay in 384 well format
Format: toxicity, cell-based
Parameters: dose 125 nL, time 70.5 hour; cytotoxicity at 70.5 h: concentration not given beside the values
Details: HepG2 cells, read-out: Inhibition

| SMILES | cytotoxicity at 70.5 h [%] |
| --- | --- |
| O=C(NCc1cccs1)C1CCN(c2cc(-n3ccnc3)ncn2)CC1 | -0.911 |
| O=S(=O)(NCC1CCN(c2cnccn2)CC1)c1cccs1 | 5.13 |
| COc1ccc(C(=O)NCCN2CCC(c3cccs3)CC2)cc1OC | 0.337 |
| CCSc1ccccc1C(=O)NCCN1CCC(c2cccs2)CC1 | 4.38 |
| CSCC(C)(O)CNS(=O)(=O)c1cccc(C)c1 (stereo not given) | 6.12 |
| CSCCC(C)(O)CNC(=O)c1ccsc1 (stereo not given) | 0.568 |
| CSCCC(C)(O)CNS(=O)(=O)Cc1cccc(C)c1 (stereo not given) | -16.9 |
| O=C(COc1ccccc1F)NCCC(O)c1ccco1 (stereo not given) | -3.87 |
| O=C(NCCC(O)c1ccco1)c1ccccc1Br (stereo not given) | -2.47 |
| COC(=O)c1sccc1S(=O)(=O)NCCC(O)c1ccco1 (stereo not given) | -8.35 |
| O=C(NCCC(O)c1cccs1)c1ccco1 (stereo not given) | -9.55 |
| O=S(=O)(NCCC(O)c1cccs1)c1ccccc1 (stereo not given) | -5.21 |
| COc1ccc(S(=O)(=O)NCCC(O)c2cccs2)c(C)c1 (stereo not given) | -8.98 |
| CC(=O)Nc1nc2c(s1)CN(CC(=O)Nc1ccc(C)c(Cl)c1)CC2 | -14.4 |
| O=C(Nc1nc2c(s1)CN(S(=O)(=O)C1CC1)CC2)c1cccc(Cl)c1 | 8.23 |
| O=C(Nc1ccc2c(c1)OCO2)N1CCN(CCn2ccnc2)CC1 | -6.54 |
| CCc1ccc(S(=O)(=O)N2CCN(CCn3ccnc3)CC2)cc1 | -0.658 |
| COC(=O)c1ccc(C(=O)NCC2(O)CCOCC2)cc1 | 33.7 |
| O=C(COc1ccccc1F)NCC(O)(c1ccccc1)C1CC1 (stereo not given) | -13.8 |
| O=C(NCC1(O)CCOc2ccccc21)Nc1ccccc1 (stereo not given) | 1.09 |
| O=C(NCC1(O)CCOc2ccccc21)Nc1ccc2c(c1)OCO2 (stereo not given) | 0.267 |
| COc1ccc(CNC(=O)NCc2cc(C)oc2C)cc1 | -10.8 |

| SMILES | cytotoxicity at 70.5 h [%] |
| --- | --- |
| O=C1CC(NS(=O)(=O)c2ccc3ccccc3c2)CN1 (stereo not given) | -5.96 |
| CCNC(=O)c1cc2n(n1)CCCO2 | -12.7 |
| CCOC(=O)CNC(=O)c1cc2n(n1)CCCO2 | -11.8 |
| Cc1cc2cc(CNC(=O)c3cnn4c3OCCC4)ccc2[nH]1 | -1.4 |
| CC1(C)OCC2(CO1)CN(C(=O)c1cccc3ccccc13)C2 | -8.48 |
| CCSc1ccccc1C(=O)N1CC2(COC(C)(C)OC2)C1 | -4.65 |
| CC1(C)OCC2(CO1)CN(S(=O)(=O)c1ccc(Br)s1)C2 | 4.85 |
| CN(C)c1ncc(NC(=O)c2ccccc2C(F)(F)F)cn1 | -4.64 |
| COCC(=O)Nc1cnc(N2CCN(c3ccccc3)CC2)nc1 | 2.64 |
| COc1ccc(C)cc1NC(=O)Nc1cnc(N2CCCC2)nc1 | 1.09 |
| COc1ccc(S(=O)(=O)Nc2cnc(N(C)C)nc2)cc1 | 29.6 |
| CCc1ccc(S(=O)(=O)Nc2cnc(N3CCOCC3)nc2)cc1 | -2.95 |
| O=S(=O)(Nc1cnc(N2CCOCC2)nc1)c1cccc(F)c1 | 1.23 |
| O=S(=O)(Nc1cnc(N2CCOCC2)nc1)c1ccc(C(F)(F)F)cc1 | 2.45 |
| Cc1noc(CNC(=O)CN(C)c2nc3ccccc3s2)n1 | -5.76 |
| Cc1ccc(N2CCO[C@@H]3CN(Cc4cccc(C)n4)CC[C@@H]3C2)nn1 | -3.06 |
| Fc1cccnc1N1CCOCC2(CCCNC2)C1 (stereo not given) | 0.635 |
| COCCC1COC2(CCN(C(=O)CC3CCCC3)CC2)C1 (stereo not given) | -3.15 |
| O=S(=O)(C1CC1)N1CC[C@H](OCC2CC2)[C@@H]1Cc1ccncc1 | -4.87 |
| COCCC1COC2(CCN(C(=O)C3CCCC3)CC2)C1 (stereo not given) | -6.45 |
| COCCC1COC2(CCN(C(=O)C3CCCCC3)CC2)C1 (stereo not given) | -5.85 |
| Cc1cnc(N2CCC3(CC2)CC(NC(=O)N(C)C)CO3)nc1 (stereo not given) | -0.406 |

| SMILES | cytotoxicity at 70.5 h [%] |
| --- | --- |
| CN1CCCN(C(=O)c2cc3c(s2)CCN3C(=O)C2CC2)CC1 | -3.39 |
| CN1CCCN(C(=O)c2cc3c(s2)CCN3C(=O)c2ccccc2)CC1 | -1.37 |
| CN1[C@@H](C(=O)NCC2CC2)C[C@@H]2CN(c3ncccn3)C[C@@H]21 | -3.13 |
| Cc1nnc([C@H]2CC[C@@H]3[C@@H](CCN3CC3CCOCC3)O2)o1 | -2.48 |
| O=C(c1ccsc1)N1C[C@H](N2CCOCC2)[C@@H]2OCCC[C@@H]21 | -1.61 |
| Cc1nnc([C@@H]2CC[C@@H]3[C@@H](CCN3C3CCOCC3)O2)o1 | -3.43 |
| O=C(C1CCOCC1)N1CC[C@@H]2[C@H]1CCC(=O)N2c1ccccc1 | 13.7 |
| CC(=O)N1CCO[C@@H]2CN(C(=O)c3ccccc3)CC[C@@H]2C1 | 13.4 |
| O=c1cc(Cn2cncn2)nc2n1CCCN(CC1CCOCC1)C2 | -3.57 |
| CN(C)S(=O)(=O)N1CCC2(CC1)CC(OCC1CC1)CO2 (stereo not given) | -4.38 |
| CN(C)Cc1cc(=O)n2c(n1)CN(CC1CCOCC1)CCC2 | -10.5 |
| Fc1cccc(N2CCCC3(C2)CN(c2cnccn2)CCO3)c1 (stereo not given) | -5.22 |
| Cc1ccc(CC(=O)N2CCCn3nnc(Cn4cccn4)c3C2)cc1 | -9.04 |
| O=S(=O)(C1CC1)N1CCOC2(COCCN(c3ncccn3)C2)C1 (stereo not given) | -9.98 |
| O=C(c1ccncc1)N1CCCn2nnc(Cn3cccn3)c2C1 | -8.56 |
| CCOCC1CN(Cc2ccoc2)Cc2cn(CC3CC3)nc21 (stereo not given) | -19.8 |
| O=c1cc(Cn2ccnc2)nc2n1CCCN(CC1CCOCC1)C2 | -19.5 |
| O=c1cc(CN2CCCC2)nc2n1CCCN(CC1CCOCC1)C2 | -13.6 |
| O=C(CO)N1CCCn2nnc(Cn3cccn3)c2C1 | 11.5 |
| CN(C)CCN1C[C@@H]2OCCN(Cc3cnn(C)c3)[C@@H]2C1 | -8.58 |
| COCCN1Cc2ccnn2CC(COCc2cccnc2)C1 (stereo not given) | -5.12 |
| CNC(=O)c1cc2c(nc1NCC(C)C)CCN(S(C)(=O)=O)CC2 | -5.11 |

| SMILES | cytotoxicity at 70.5 h [%] |
| --- | --- |
| Cc1ccc(CN2Cc3ccnn3CC(COCc3cccnc3)C2)o1 (stereo not given) | -5.79 |
| CCS(=O)(=O)N1CCc2cc(C(=O)NC)c(NCC(C)C)nc2CC1 | -4.65 |
| CNC(=O)c1cc2c(nc1NCC(C)C)CCN(S(=O)(=O)N(C)C)CC2 | -5.52 |
| O=C(c1n[nH]c2c1CCN(Cc1nccs1)C2)N1CCOCC1 | 4.7 |
| Cc1cnc(N2Cc3nccn3CC(Cn3nc(C)nc3C)C2)nc1 (stereo not given) | 0.499 |
| Cn1cc(CN2CCO[C@H]3CN(Cc4ccsc4)C[C@H]32)cn1 | -14 |
| Cn1cc(CN2C[C@@H]3OCCN(CC4CCCC4)[C@@H]3C2)cn1 | -7.97 |
| CS(=O)(=O)N1CCCC12CCCN(C(=O)c1ccno1)C2 (stereo not given) | -9.08 |
| O=C(CC1CC1)N1CCC2(CC(=O)N(c3cccc(F)c3)C2)C1 (stereo not given) | -6.99 |
| O=C(Cn1nc(Br)nc1Br)N1CCCC1 | -0.289 |
| Cn1c(N)c2c(=O)n(C)c(-c3ccccc3)cc2c(C#N)c1=O | -10.5 |
| Cn1c(N)c2c(=O)n(C)c(-c3ccc(Cl)cc3)cc2c(C#N)c1=O | -8.81 |
| COc1cc2nc(C)n(CC(=O)O)c(=O)c2cc1OC | -8.36 |
| O=C(Cn1ccc2ccc(Br)cc21)NC[C@@H]1CCCN2CCCC[C@H]12 | 41.4 |
| COc1cccc2c1ccn2CCC(=O)NCCCC(=O)O | -3.23 |
| COC(=O)c1ccc(C2CC(=O)Oc3cc(C)[nH]c(=O)c32)cc1 (stereo not given) | 4.58 |
| Cc1ccc(N2CC[C@@H]3CN(Cc4cccc(C)n4)C[C@@H]3C2)nn1 | -4.34 |
| Cn1nc(Cn2cccn2)c2c1CN(C1CCOCC1)C2 | -0.608 |
| O=C(C1CCC2(CCN(c3nncs3)CC2)CO1)N1CCCC1 (stereo not given) | -1.78 |
| CCN1CC[C@]2(CN(Cc3nccs3)C[C@H]2c2ccccc2)C1=O | -0.124 |
| O=C1NCC[C@]12CN(Cc1nccs1)C[C@H]2c1ccccc1 | -0.358 |
| Fc1cnc(N2CC[C@@H]3O[C@@H](COCc4cccnc4)CC[C@@H]32)nc1 | -6.15 |

| SMILES | cytotoxicity at 70.5 h [%] |
| --- | --- |
| O=S(=O)(NCC1OCCc2cn(CC3CCOCC3)nc21)C1CC1 (stereo not given) | -3.73 |
| CN(C)C1CCN(C(=O)c2cc3c(s2)CCN3C(=O)C2CC2)CC1 | -2.71 |
| O=C(NCc1cccs1)[C@]12COC[C@H]1CN(c1ncccn1)C2 | -3.55 |
| CN(C)C[C@H]1OC[C@@H]2CCN(C(=O)Cc3cccs3)C[C@@H]21 | -9.21 |
| CN(C)S(=O)(=O)N1C[C@H]2CCC[C@@]2(COc2cccnc2)C1 | -5.8 |
| Cc1nc(C)n(CC2CN(Cc3cccs3)Cc3nccn3C2)n1 (stereo not given) | -0.931 |
| CN(C)C(=O)c1n[nH]c2c1CN(Cc1nccs1)CC2 | -1.73 |
| CNC(=O)c1cc2c(nc1NCC(C)C)CCN(c1ncccn1)CC2 | 4.12 |
| O=S(=O)(C1CC1)N1CC[C@H]2OCC[C@@]2(COc2ncccc2F)C1 | -12.6 |
| Fc1cnc(N2CC[C@@H]3O[C@@H](COCc4ccccn4)CC[C@@H]32)nc1 | 7.99 |
| Cc1ccc(CN2CCc3c(CN4CCCC4)n[nH]c3C2)s1 | -4.44 |
| COC[C@]12COC[C@H]1CN(Cc1ccc3ccccc3n1)C2 | -3.53 |
| Cc1ccc(N2C[C@H]3CCC[C@@]3(COc3cccnc3)C2)nn1 | -8.26 |
| O=C(NCc1ccccn1)[C@H]1COC[C@H]2CN(c3ncccn3)C[C@H]21 | -4.8 |
| Cc1nc(C)n(CC2CN(Cc3ccncc3)Cc3nccn3C2)n1 (stereo not given) | -4.22 |
| Cc1ncsc1CN1C[C@@H](OCc2ccncc2)[C@H]2OCCC[C@H]21 | 3.55 |
| COCCN1CCc2cc(C(=O)NC(C)C)c(NCC(C)C)nc2CC1 | -16.4 |
| CCO[C@@H]1CN(Cc2scnc2C)[C@@H]2CCCO[C@@H]21 | -10.5 |
| CN1CCN([C@@H]2CCN(CC3CCOC3)[C@H]2Cc2cnn(C)c2)CC1 (stereo not given in full) | -13 |
| CN(C)C[C@]12COC[C@H]1CN(Cc1ccc3ccccc3n1)C2 | -11.7 |
| CN1CCN([C@@H]2CCN(C3CCOC3)[C@H]2Cc2cnn(C)c2)CC1 (stereo not given in full) | -12.4 |
| Cc1ncsc1CN1C[C@@H](OCc2ccccn2)[C@H]2OCCC[C@H]21 | 7.35 |

From ChEMBL document CHEMBL3507680, “University of Dundee, Gates Library screen for HepG2 cell viability”
